Laboratory results reported in patent EP0559845B1, “Use of compounds in preventing endotoxin shock” (priority 1991, dated 1992).
“Also recorded” adds a separate entry of the source. Like-named read-outs stand apart in the source and are kept apart here.

Tests used:
Assay type in all cases: biochemical
[1] = test system: LPS-induced GTPase activity in membranes isolated from RAW 264.7 cells; assay: GTPase assay: effect of compounds on LPS-stimulated GTPase activity in macrophage membranes (release of 32Pi from γ-32P-GTP); conditions: for relative abilities of purines to stimulate LPS-enhanced GTPase: dose-response studies, rank order; for sensitivity of LPS-stimulated GTPase activity to inhibitor: high concentrations of inhibitor, 0.1 mM ATP and 0.2 mM AMPPNP
Description: (§1) We sought to directly evaluate the influence of LPS on possible G-protein function by examining agonist-enhanced GTPase activity, which is a hallmark of G-protein action. Moreover, because macrophages are one of the key cell types in the release of toxic mediators following an LPS challenge, we first assessed the capacity of LPS to influence GTPase activity in membranes isolated from RAW 264.7 cells, which is a highly LPS-responsive macrophage cell line. In these studies, GTPase activity was measured using a standard assay. The activity was determined using 2 µM γ-^32P-GTP in the presence of 0.1 mM ATP and 0.2 mM of the non-hydrolyzable ATP analog, AMPPNP, in order to minimize nonspecific nucleotidase activity in the membrane preparations.
The reaction is initiated by the addition of the γ-^32P-GTP and the mixture incubated at 30-37°C for 15 to 30 minutes. The reaction is terminated by the addition of 500µl of 5% trichloroacetic acid and 500µl of 0.1gm/ml acid-activated charcoal in 5% trichloroacetic acid. The samples are centrifuged at 14,000xg for 10 minutes, and a 550µl aliquot of the supernatant is removed for scintillation counting. The supernatant will contain the released ^32Pi. The extent of GTPase inhibition is measured by the decrease in the amount of ^32Pi released from γ-^32P-GTP. Appropriate controls include mixtures with one of the following omitted: (i) test compound, (ii) endotoxin, and (iii) ATP, ADP or AMPPNP.
The membranes are resuspended in 20 mM HEPES (pH 7.4), 1 mM dithiothreitol, 1 mM EDTA and 10 µg leupeptin/ml. Aliquots are stored at -70°C until assayed.

[2] = test system: LPS-induced GTPase activity in membranes isolated from RAW 264.7 cells; assay: GTPase assay (release of 32Pi from γ-32P-GTP), LPS-stimulated activity; conditions: for LPS-stimulated GTPase activity when adenine nucleotide included in the incubation: compared with no added adenine nucleotides
Description: as §1, with “preparations. In the preferred practice of the present invention, the ability of a candidate compound to inhibit LPS-induced GTPase is assessed by measuring the release of ^32Pi from γ-^32P-GTP.” for “preparations.”
(§2) Under these conditions, GTPase activation was evident at 100 µg LPS/ml (roughly 6 µM assuming an average MW ∼ 17,000 kDa), and the maximal effect was seen by 300 µg/ml LPS. (2) To show adenosine mucleotide synergism with LPS-stimulated GTPase activity, either 10µM ATP or 30µM ADP replace the 0.1 mM ATP and 0.2 mM AMPPNP of the standard assay described by Cassel et al. and Neer et al.
(§3) In the preferred assay, a candidate compound (.001 - 1000 µM) is dissolved or suspended in 100µl of a reaction buffer containing 20mM HEPES (pH 7.4), 0.01mM ATP or ADP, membranes isolated from RAW 264.7 cells, 2µM γ-^32P-GTP (3-9 X 10cpm/pmol), 5mM MgCl2, 18µM LPS (based on an estimated MW of 17,000 kDa for E. coli 0111:B4 endotoxin), and 250 mM ammonium sulfate. The reaction is initiated by the addition of the γ-^32P-GTP and the mixture incubated at 30-37°C for 15 to 30 minutes. The reaction is terminated by the addition of 500µl of 5% trichloroacetic acid and 500µl of 0.1gm/ml acid-activated charcoal in 5% trichloroacetic acid. The samples are centrifuged at 14,000xg for 10 minutes, and a 550µl aliquot of the supernatant is removed for scintillation counting. The supernatant will contain the released ^32Pi. The extent of GTPase inhibition is measured by the decrease in the amount of ^32Pi released from γ-^32P-GTP. Appropriate controls include mixtures with one of the following omitted: (i) test compound, (ii) endotoxin, and (iii) ATP, ADP or AMPPNP.
(§4) The macrophage-like cell line RAW 264.7 is cultured as described using RPMI 1640 medium supplemented with 10% fetal calf serum (FCS) containing < 0.1 ng/ml LPS. The membranes are resuspended in 20 mM HEPES (pH 7.4), 1 mM dithiothreitol, 1 mM EDTA and 10 µg leupeptin/ml. Aliquots are stored at -70°C until assayed.

[3] = test system: GTPase activity in membranes isolated from a macrophage (RAW 264.7) cell line; assay: GTPase assay: basal or agonist-stimulated GTPase activity in macrophage membranes
Description: as §1, with “preparations. In the preferred practice of the present invention, the ability of a candidate compound to inhibit LPS-induced GTPase is assessed by measuring the release of ^32Pi from γ-^32P-GTP.” for “preparations.”
(§5) We first determined the optimal LPS concentration for GTPase stimulation. In all experiments, the LPS dose response curve was quite steep, and with the highest activity occurring around 200-300 µg LPS/ml.
as §2, §3, §4
(§6) To assess whether the LPS/ATP-enhanced GTPase is a "low Km" form, which would be expected for a variety of large and small MW G-proteins, as well as for various GAP and ARF-like proteins, as opposed to a "high Km" form, such as a phosphatase, we assayed the GTPase activity using 0.2 and 50 µM GTP essentially as described previously. […] The LPS and ATP stimulated a low Km GTPase activity by ∼30% and 70%, respectively, when added individually. This stimulation of low Km activity was slightly greater than that estimated using the standard assay conditions. […] The LPS stimulation of GTPase activity is enhanced by adenine nucleotides.

[4] = test system: GTPase activity in membranes isolated from a macrophage (RAW 264.7) cell line; assay: GTPase assay, basal activity and single agonists
Description: as §1, with “preparations. In the preferred practice of the present invention, the ability of a candidate compound to inhibit LPS-induced GTPase is assessed by measuring the release of ^32Pi from γ-^32P-GTP.” for “preparations.”
as §5, §2
Because the above inhibitor studies indicated a maximum LPS-stimulated GTPase activity in the presence of ATP and ATP analogs, we investigated this interaction by measuring the ATP-dependence of the GTPase activity in macrophage membranes in the presence and absence of an optimal dose of LPS. […] This stimulation by ATP may be due to the action of purinergic receptors, i.e., the adenosine and ATP receptors which are well-characterized to be coupled to various G-proteins.
as §6

Nc1ncnc2c1ncn2[C@@H]1O[C@H](COP(=O)(O)OP(=O)(O)O)[C@@H](O)[C@H]1O [ADP]
stimulation (potentiation) of LPS-stimulated GTPase activity [1]: potentiated; also recorded: pronounced increase in LPS-stimulated GTPase activity | relative abilities of purines to stimulate LPS-enhanced GTPase [1]: ATP> ATPγS> ADP> AMPPNP>> β,γ methylene ATP> 2-MeSATP | LPS-stimulated GTPase activity when adenine nucleotide included in the incubation [2]: pronounced increase

Nc1ncnc2c1ncn2[C@@H]1O[C@H](COP(=O)(O)OP(=O)(O)NP(=O)(O)O)[C@@H](O)[C@H]1O [AMPPNP]
stimulation (potentiation) of LPS-stimulated GTPase activity [1]: pronounced increase in LPS-stimulated GTPase activity | relative abilities of purines to stimulate LPS-enhanced GTPase [1]: ATP> ATPγS> ADP> AMPPNP>> β,γ methylene ATP> 2-MeSATP | LPS-stimulated GTPase activity when adenine nucleotide included in the incubation [2]: pronounced increase

Nc1ncnc2c1ncn2[C@@H]1O[C@H](COP(=O)(O)O)[C@@H](O)[C@H]1O [AMP]
stimulation of LPS-enhanced GTPase activity ([1]; at 100 µM): ineffective; also recorded: did not synergistically increase

Nc1ncnc2c1ncn2[C@@H]1O[C@H](COP(=O)(O)OP(=O)(O)OP(=O)(O)O)[C@@H](O)[C@H]1O [ATP]
stimulation (potentiation) of LPS-stimulated GTPase activity [1]: potentiated; also recorded: pronounced increase in LPS-stimulated GTPase activity | ATP concentration of striking synergistic stimulation of GTPase activity ([1]; ATP and LPS added together, biphasic): 1 to 10 µM | increase in activity of the GTPase ([1]; ATP in the presence of LPS): three-fold | stimulation of LPS-enhanced GTPase activity ([1]; at 1 µM): active | relative abilities of purines to stimulate LPS-enhanced GTPase [1]: ATP> ATPγS> ADP> AMPPNP>> β,γ methylene ATP> 2-MeSATP | ATP concentration of maximum stimulation of GTPase activity ([3]; ATP alone, no LPS, biphasic stimulation): 1 to 10 µM | combined effects of LPS and ATP: stimulation calculated for the low Km activity ([3]; LPS plus ATP): 228 % of basal activity | combined effects of LPS and ATP: stimulation measured using standard assay conditions ([3]; LPS plus ATP, 2 µM GTP, 0.1 mM ATP, 0.2 mM AMPPNP): 208 % of basal activity | stimulation of low Km GTPase activity ([3]; added individually, ATP 10 µM): 70% | LPS-stimulated GTPase activity when adenine nucleotide included in the incubation [2]: pronounced increase

Nc1ncnc2c1ncn2[C@@H]1O[C@H](COP(=O)(O)OP(=O)(O)OP(O)(O)=S)[C@@H](O)[C@H]1O [ATPγS]
relative abilities of purines to stimulate LPS-enhanced GTPase [1]: ATP> ATPγS> ADP> AMPPNP>> β,γ methylene ATP> 2-MeSATP

CC(C)Cn1c(=O)n(C)c(=O)c2[nH]cnc21 [IBMX]
inhibition of LPS-stimulated GTPase activity [1]: did not alter the LPS activation of the GTPase | stimulation of LPS-enhanced GTPase activity ([1]; at 100 µM): did not synergistically increase | effect on the LPS activation of the GTPase ([2]; P1 purinoreceptor antagonist): did not alter

CCN1C(=O)C=CC1=O [N-ethyl-maleimide]
inhibition of LPS-stimulated GTPase activity [1]: not antagonized | inhibition of LPS-stimulated GTPase activity ([1]; in the presence of ADP): did not block

NC(=O)c1ccc[n+]([C@@H]2O[C@H](COP(=O)([O-])OP(=O)(O)OC[C@H]3O[C@@H](n4cnc5c(N)ncnc54)[C@H](O)[C@@H]3O)[C@@H](O)[C@H]2O)c1 [NAD]
stimulation of LPS-enhanced GTPase activity ([1]; at 100 µM): did not synergistically increase

O=c1ccn([C@@H]2O[C@H](COP(=O)(O)OP(=O)(O)OP(=O)(O)O)[C@@H](O)[C@H]2O)c(=O)[nH]1 [UTP]
stimulation of LPS-enhanced GTPase activity ([1]; at 100 µM): did not synergistically increase

Nc1ncnc2c1ncn2[C@@H]1O[C@H](CO)[C@@H](O)[C@H]1O [adenosine]
stimulation of LPS-enhanced GTPase activity ([1]; at 100 µM): ineffective; also recorded: did not synergistically increase

CO/C1=C\C(C)=C\[C@@H](C)[C@@H](O)[C@@H](C)C/C(C)=C/C=C/[C@H](OC)[C@@H]([C@@H](C)[C@@H](O)[C@H](C)[C@@]2(O)C[C@@H](O)[C@H](C)[C@@H](C(C)C)O2)OC1=O [bafilomycin]
inhibition of LPS-stimulated GTPase activity [1]: not antagonized | inhibition of LPS-stimulated GTPase activity ([1]; in the presence of ADP): did not block

C[C@@H]1O[C@@H](O[C@H]2C[C@@H](O)[C@]3(CO)[C@H]4[C@H](O)C[C@]5(C)[C@@H](C6=CC(=O)OC6)CC[C@]5(O)[C@@H]4CC[C@]3(O)C2)[C@H](O)[C@H](O)[C@H]1O [ouabain]
inhibition of LPS-stimulated GTPase activity [1]: not antagonized | sensitivity of LPS-stimulated GTPase activity to inhibitor [1]: insensitivity | inhibition of LPS-stimulated GTPase activity ([1]; in the presence of ADP): did not block

O=[N+]([O-])c1ccc(OP(=O)(O)O)cc1 [p-nitrophenyl-phosphate]
inhibition of LPS-stimulated GTPase activity [1]: not antagonized | sensitivity of LPS-stimulated GTPase activity to inhibitor [1]: insensitivity

[Na+].[Na+].[Na+].[O]=[V]([O-])([O-])[O-] [sodium orthovanadate]
inhibition of LPS-stimulated GTPase activity [1]: did block LPS activation

Cn1c(=O)c2[nH]cnc2n(C)c1=O [theophylline]
stimulation of LPS-enhanced GTPase activity ([1]; at 100 µM): did not synergistically increase

Nc1ncnc2c1ncn2[C@@H]1O[C@H](COP(=O)(O)OP(=O)(O)CP(=O)(O)O)[C@@H](O)[C@H]1O [β,γ methylene ATP]
relative abilities of purines to stimulate LPS-enhanced GTPase [1]: ATP> ATPγS> ADP> AMPPNP>> β,γ methylene ATP> 2-MeSATP

Triton X-100
inhibition of LPS-stimulated GTPase activity [1]: did not substantially interfere | effect on basal GTPase activity ([3]; no LPS): did reduce basal GTPase activity

phosphatidic acid [listing 1 of 2 here]
inhibition of LPS-stimulated GTPase activity [1]: nor inhibit LPS-stimulated GTPase activity | effect on basal GTPase activity ([3]; no LPS): did not stimulate basal GTPase activity

phosphatidic acid [listing 2 of 2 here]
effect on basal GTPase activity [4]: did not stimulate

phosphatidylcholine [listing 1 of 2 here]
inhibition of LPS-stimulated GTPase activity [1]: nor inhibit LPS-stimulated GTPase activity | effect on basal GTPase activity ([3]; no LPS): did not stimulate basal GTPase activity

phosphatidylcholine [listing 2 of 2 here]
effect on basal GTPase activity [4]: did not stimulate

phosphatidylserine [listing 1 of 2 here]
inhibition of LPS-stimulated GTPase activity [1]: nor inhibit LPS-stimulated GTPase activity | effect on basal GTPase activity ([3]; no LPS): did not stimulate basal GTPase activity

phosphatidylserine [listing 2 of 2 here]
effect on basal GTPase activity [4]: did not stimulate
